Columns and labels:
[1] = system: HUVEC cells; assay: Lipid peroxidation: malondialdehyde (MDA) in HUVEC; assay type: cell-based, human; conditions: 30 mM glucose, with or without 5 mM ERT
Experimental: The prepared cells were seeded in 6 well plates and T75 flasks and grown until 80% confluence. The medium was removed, and the cells were washed with Hank's Balanced Salt Solution (HBSS). […] The vehicle solution is the solvent for the test compounds, in this case being the medium without supplements. […] The cells described above were also incubated for 24 hours with a 7 mM, normal glucose (NG) solution or in some instances, with a 15 mM, intermediary glucose (IG) solution. See, for example, FIG. 6. Subsequently, the cells were incubated for 24 hours. The same protocol was used for incubation with Nε-(carboxymethyl)lysine (CML, final concentration 1 micromolar) and 1,3-morpholino sidnonimine (SIN-1, final concentration 0.5 mM).

[2] = system: HUVEC cells; assay: Oxidative damage: protein carbonyls in HUVEC; assay type: cell-based, human; conditions: HG 30 mM glucose 24 h, with or without 5 mM ERT/MAN
Experimental: The prepared cells were seeded in 6 well plates and T75 flasks and grown until 80% confluence. The medium was removed, and the cells were washed with Hank's Balanced Salt Solution (HBSS). […] The vehicle solution is the solvent for the test compounds, in this case being the medium without supplements. […] The cells described above were also incubated for 24 hours with a 7 mM, normal glucose (NG) solution or in some instances, with a 15 mM, intermediary glucose (IG) solution. See, for example, FIG. 6. Subsequently, the cells were incubated for 24 hours. The same protocol was used for incubation with Nε-(carboxymethyl)lysine (CML, final concentration 1 micromolar) and 1,3-morpholino sidnonimine (SIN-1, final concentration 0.5 mM). […] Hyperglycemia is strongly associated with oxidative stress, an imbalance between the formation of reactive oxygen species and the present antioxidants. Excess reactive oxygen species react with critical cellular targets, viz. membrane lipids, proteins and (deoxy)ribonucleic acids. […] Accordingly, one of the targeted assays included studying a comparison of HG to HGERT conditions, where the oxidative damage was evaluated showing that the protein carbonyls decreased from 6.55 nM/mg protein with HG to 3.77 with […]=0.089). Protein carbonyls are end products of reactions between proteins and reactive oxygen species (ROS), formed during oxidative stress. […]

Q: Which “malondialdehyde (MDA), end product of lipid peroxidation” value [1] does the source give for `OC[C@@H](O)[C@@H](O)CO` [ERT, meso-1,2,3,4-tetrahydroxybutane] here?
A: Neither the exposure of the HUVEC cells to 5 mM ERT and 30 mM glucose (HGERT) nor to HG aloneaffected

Q: What about the protein carbonyls [2] of the same molecule?
A: 3.77 nM/mg protein

Source: patent US20150104868A1, “Methods of Maintaining and Improving Biological Cell Function and Activity” (GARGILL INCORPORATED, priority 2012, published 2015)
